Source: ChEMBL document CHEMBL4308841, “Synthesis, in vitro antiproliferative activity, and kinase inhibitory effects of pyrazole-containing diarylureas and diarylamides” (Eur J Med Chem, 2018)
pIC50: −log10 of the molar value.

How the values were obtained:
[1] = test system: LOX IMVI; experiment: Growth inhibition of human LOXIMVI cells assessed as cell growth at 1 uM incubated for 48 hrs by sulforhodamine B assay relative to control; assay type: functional; details: read-out: Activity
[2] = test system: SK-MEL-28; experiment: Growth inhibition of human SK-MEL-28 cells incubated for 48 hrs by sulforhodamine B assay; assay type: functional, cell-based; details: SK-MEL-28, 48 h
[3] = test system: OVCAR-5; experiment: Growth inhibition of human OVCAR5 cells assessed as cell growth at 0.01 uM incubated for 48 hrs by sulforhodamine B assay relative to control; assay type: functional; details: OVCAR-5, 48 h, read-out: Activity
[4] = test system: LOX IMVI; experiment: Growth inhibition of human LOXIMVI cells incubated for 48 hrs by sulforhodamine B assay; assay type: functional
[5] = test system: SR; experiment: Growth inhibition of human SR cells incubated for 48 hrs by sulforhodamine B assay; assay type: functional, cell-based
[6] = test system: 786-0; experiment: Growth inhibition of human 786-0 cells assessed as cell growth at 0.01 uM incubated for 48 hrs by sulforhodamine B assay relative to control; assay type: functional; details: 786-0, 48 h, read-out: Activity
[7] = test system: M14; experiment: Growth inhibition of human M14 cells assessed as cell growth at 100 uM incubated for 48 hrs by sulforhodamine B assay relative to control; assay type: functional; details: M14, 48 h, read-out: Activity
[8] = test system: NCI-H322M; experiment: Growth inhibition of human NCI-H322M cells assessed as cell growth at 100 uM incubated for 48 hrs by sulforhodamine B assay relative to control; assay type: functional; details: read-out: Activity
[9] = test system: HT-29; experiment: Growth inhibition of human HT-29 cells assessed as cell growth at 1 uM incubated for 48 hrs by sulforhodamine B assay relative to control; assay type: functional; details: HT-29, 48 h, read-out: Activity
[10] = test system: U-251; experiment: Growth inhibition of human U251 cells incubated for 48 hrs by sulforhodamine B assay; assay type: functional, cell-based; details: U-251, 48 h
[11] = test system: A498; experiment: Growth inhibition of human A498 cells assessed as cell growth at 1 uM incubated for 48 hrs by sulforhodamine B assay relative to control; assay type: functional; details: A498, 48 h, read-out: Activity
[12] = test system: MDA-MB-435; experiment: Growth inhibition of human MDA-MB-435 cells assessed as cell growth at 0.1 uM incubated for 48 hrs by sulforhodamine B assay relative to control; assay type: functional; details: MDA-MB-435, 48 h, read-out: Activity
[13] = test system: SN12C; experiment: Growth inhibition of human SN12C cells assessed as cell growth at 0.1 uM incubated for 48 hrs by sulforhodamine B assay relative to control; assay type: functional; details: read-out: Activity
[14] = test system: IGROV-1; experiment: Growth inhibition of human IGROV1 cells incubated for 48 hrs by sulforhodamine B assay; assay type: functional, cell-based; details: IGROV-1, 48 h
[15] = test system: SW-620; experiment: Growth inhibition of human SW620 cells assessed as cell growth at 0.01 uM incubated for 48 hrs by sulforhodamine B assay relative to control; assay type: functional; details: SW-620, 48 h, read-out: Activity
[16] = test system: RPMI-8226; experiment: Growth inhibition of human RPMI8226 cells assessed as cell growth at 0.01 uM incubated for 48 hrs by sulforhodamine B assay relative to control; assay type: functional; details: RPMI-8226, 48 h, read-out: Activity
[17] = test system: NCI-H322M; experiment: Growth inhibition of human NCI-H322M cells incubated for 48 hrs by sulforhodamine B assay; assay type: functional, cell-based
[18] = test system: SK-MEL-5; experiment: Growth inhibition of human SK-MEL-5 cells assessed as cell growth at 1 uM incubated for 48 hrs by sulforhodamine B assay relative to control; assay type: functional; details: SK-MEL-5, 48 h, read-out: Activity
[19] = test system: Hs-578T; experiment: Growth inhibition of human Hs578T cells assessed as cell growth at 0.1 uM incubated for 48 hrs by sulforhodamine B assay relative to control; assay type: functional; details: read-out: Activity
[20] = test system: NCI-H322M; experiment: Growth inhibition of human NCI-H322M cells assessed as cell growth at 0.01 uM incubated for 48 hrs by sulforhodamine B assay relative to control; assay type: functional; details: read-out: Activity
[21] = test system: IGROV-1; experiment: Growth inhibition of human IGROV1 cells assessed as cell growth at 0.01 uM incubated for 48 hrs by sulforhodamine B assay relative to control; assay type: functional; details: IGROV-1, 48 h, read-out: Activity
[22] = test system: T47D; experiment: Growth inhibition of human T47D cells assessed as cell growth at 0.01 uM incubated for 48 hrs by sulforhodamine B assay relative to control; assay type: functional; details: read-out: Activity
[23] = test system: Malme-3M; experiment: Growth inhibition of human MALME-3M cells incubated for 48 hrs by sulforhodamine B assay; assay type: functional, cell-based
[24] = test system: UACC-257; experiment: Growth inhibition of human UACC257 cells assessed as cell growth at 1 uM incubated for 48 hrs by sulforhodamine B assay relative to control; assay type: functional; details: UACC-257, 48 h, read-out: Activity
[25] = test system: MOLT-4; experiment: Growth inhibition of human MOLT4 cells assessed as cell growth at 1 uM incubated for 48 hrs by sulforhodamine B assay relative to control; assay type: functional; details: MOLT-4, 48 h, read-out: Activity
[26] = test system: CAKI-1; experiment: Growth inhibition of human Caki1 cells assessed as cell growth at 1 uM incubated for 48 hrs by sulforhodamine B assay relative to control; assay type: functional; details: CAKI-1, 48 h, read-out: Activity
[27] = test system: CAKI-1; experiment: Growth inhibition of human Caki1 cells assessed as cell growth at 100 uM incubated for 48 hrs by sulforhodamine B assay relative to control; assay type: functional; details: CAKI-1, 48 h, read-out: Activity
[28] = test system: SNB-75; experiment: Growth inhibition of human SNB75 cells incubated for 48 hrs by sulforhodamine B assay; assay type: functional, cell-based; details: SNB-75, 48 h
[29] = read-out: LC50 (the source's name)
[30] = read-out: pLC50 (the source's name) (converted)

Compound: O=C(Nc1cccc(-n2cc(-c3ccncc3)c(-c3cc(O)cc(Cl)c3)n2)c1)c1cc(C(F)(F)F)cc(C(F)(F)F)c1
- growth at 1 µM [1]: 97%
- GI50 ([2]; read-out: GI50): 4.71 µM
- CC50 [2, 29]: > 100 µM
- TGI ([2]; read-out: TGI): 85.3 µM
- GI50 ([2]; read-out: pGI50 (converted)): 4.68 µM
- CC50 [2, 30]: > 100 µM
- TGI ([2]; read-out: pTGI (converted)): 85.1 µM
- growth at 0.01 µM [3]: 92%
- GI50 ([4]; read-out: GI50): 3.29 µM
- CC50 [4, 29]: > 100 µM
- TGI ([4]; read-out: TGI): 13.7 µM
- GI50 ([4]; read-out: pGI50 (converted)): 3.31 µM
- CC50 [4, 30]: > 100 µM
- TGI ([4]; read-out: pTGI (converted)): 13.8 µM
- GI50 ([5]; read-out: GI50): 1510 nM
- CC50 [5, 29]: > 100 µM
- TGI ([5]; read-out: TGI): 50.1 µM
- GI50 ([5]; read-out: pGI50 (converted)): 1620 nM
- CC50 [5, 30]: > 100 µM
- TGI ([5]; read-out: pTGI (converted)): 5.01 µM
- growth at 0.01 µM [6]: 94%
- growth at 100 µM [7]: 5%
- growth at 100 µM [8]: 13%
- growth at 1 µM [9]: 79%
- pIC50 [10]: 5.49
- GI50 ([10]; read-out: GI50): 3.23 µM
- CC50 [10, 29]: > 100 µM
- TGI ([10]; read-out: TGI): 24.4 µM
- GI50 ([10]; read-out: pGI50 (converted)): 3.24 µM
- CC50 [10, 30]: > 100 µM
- TGI ([10]; read-out: pTGI (converted)): 30.9 µM
- growth at 1 µM [11]: 78%
- growth at 0.1 µM [12]: 95%
- growth at 0.1 µM [13]: 98%
- GI50 ([14]; read-out: GI50): 7.96 µM
- CC50 [14, 29]: > 100 µM
- TGI ([14]; read-out: TGI): > 100 µM
- GI50 ([14]; read-out: pGI50 (converted)): 7.94 µM
- CC50 [14, 30]: > 100 µM
- TGI ([14]; read-out: pTGI (converted)): > 100 µM
- growth at 0.01 µM [15]: 99%
- growth at 0.01 µM [16]: 105%
- GI50 ([17]; read-out: GI50): 7.92 µM
- CC50 [17, 29]: > 100 µM
- TGI ([17]; read-out: TGI): > 100 µM
- GI50 ([17]; read-out: pGI50 (converted)): 7.94 µM
- CC50 [17, 30]: > 100 µM
- TGI ([17]; read-out: pTGI (converted)): > 100 µM
- growth at 1 µM [18]: 90%
- growth at 0.1 µM [19]: 92%
- growth at 0.01 µM [20]: 103%
- growth at 0.01 µM [21]: 100%
- growth at 0.01 µM [22]: 102%
- GI50 ([23]; read-out: GI50): 3.59 µM
- CC50 [23, 29]: > 100 µM
- TGI ([23]; read-out: TGI): 94.4 µM
- GI50 ([23]; read-out: pGI50 (converted)): 3.72 µM
- CC50 [23, 30]: > 100 µM
- TGI ([23]; read-out: pTGI (converted)): 95.5 µM
- growth at 1 µM [24]: 92%
- growth at 1 µM [25]: 78%
- growth at 1 µM [26]: 90%
- growth at 100 µM [27]: 7%
- GI50 ([28]; read-out: GI50): 2300 nM
- CC50 [28, 29]: > 100 µM
- TGI ([28]; read-out: TGI): > 100 µM
- GI50 ([28]; read-out: pGI50 (converted)): 2820 nM
- CC50 [28, 30]: > 100 µM
- TGI ([28]; read-out: pTGI (converted)): > 100 µM
